Source: patent US20250179094A1, “TGF-B INHIBITOR COMPOUND AND USE THEREOF” (Medinno Pharmaceutical Technology (Zhuhai) Co., Ltd., priority 2022, published 2025)

The compounds below were run against human TGFβR1 (Homo sapiens (Human), UniProt P36897) (assay: TGFβR1 kinase activity assay (ADP-Glo method)). Conditions: ATP 5 uM, TGFβR1tide substrate, 60 minutes at room temperature.
Assay type: biochemical
Method: The principle of the activity assay was that TGFβR1 phosphorylates the substrate TGFβR1tide, consuming ATP in the process. […] The specific experimental steps were as follows. Compounds were diluted 4-fold in DMSO in a dilution plate, with the final starting concentration of the compounds being 10 μM, across 10 concentration gradient points. The compounds were then further diluted 50-fold into the kinase reaction buffer and incubated on a shaker for 20 minutes. Kinase was formulated with an enzyme reaction buffer. 2 μl kinase was added to each well of the reaction plate. 1 μl of the compound diluted in buffer was added to each well, and then the plate was sealed with a sealing membrane and centrifuged at 1000 g for 30 seconds, leaving it at room temperature for 10 minutes. Solutions of TGFβR1tide and ATP were prepared with the kinase reaction buffer, and 2 μL of the TGFβR1tide/ATP solution was added to the reaction plate. The plate was sealed with a sealing film and centrifuged at 1000 g for 30 seconds. It was allowed to react at room temperature for 60 minutes. Subsequently, 4 μL of ADP-Glo was transferred to a 384-well reaction plate and centrifuged at 1000 rpm/min for 1 minute, followed by incubation at 25° C. for 40 minutes. Then, 8 μL of Detection solution was transferred to the 384-well reaction plate and centrifuged at 1000 rpm/min for 1 minute, after which it was incubated at 25° C. for 40 minutes. The RLU (Relative Luminescence Unit) signal was read using a BMG microplate reader, which was used to characterize the degree of kinase activity.
3.1 The inhibition rate was calculated as follows: inhibition rate of compound (% inh)=100%−(compound−positive control)/(negative control−positive control)*100%.
The IC50 (half inhibition concentration) of a compound was obtained using the following non-linear fitting equation, wherein data analysis was performed using Graphpad 7.0 software.
X: log value of compound concentration; and Y: inhibition rate (% inhibition)

human TGFβR1, sequence (P36897 34-503): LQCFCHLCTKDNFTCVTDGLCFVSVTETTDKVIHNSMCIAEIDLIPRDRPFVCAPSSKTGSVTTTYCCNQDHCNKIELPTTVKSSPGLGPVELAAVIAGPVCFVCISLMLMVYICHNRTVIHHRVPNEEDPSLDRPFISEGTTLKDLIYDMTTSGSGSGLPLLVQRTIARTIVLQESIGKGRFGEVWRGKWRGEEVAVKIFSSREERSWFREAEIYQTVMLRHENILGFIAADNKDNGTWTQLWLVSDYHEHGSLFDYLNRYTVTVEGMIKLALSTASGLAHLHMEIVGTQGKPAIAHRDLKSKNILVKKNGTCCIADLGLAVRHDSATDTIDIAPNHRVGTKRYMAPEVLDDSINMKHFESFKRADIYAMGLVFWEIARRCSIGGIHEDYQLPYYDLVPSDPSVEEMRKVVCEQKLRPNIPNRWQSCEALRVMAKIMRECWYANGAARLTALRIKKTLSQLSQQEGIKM

Row | IC50 | SMILES
1 | 1.4 nM | Cc1cccc(-c2nn(Cc3cccnc3)cc2-c2ccnc(-c3nc4c([nH]3)CN(S(C)(=O)=O)C4)c2)n1 [Compound 54, 2-[4-(3-(6-Methylpyridin-2-yl)-1-(pyridin-3-ylmethyl)-1H-pyrazol-4-yl)pyridin-2-yl]-5-(methylsulfonyl)-1,4,5,6-tetrahydropyrrolo[3,4-d]imidazole]
2 | 7.3 nM | Cc1cccc(-c2nc3n(c2-c2ccnc(-c4nc5c([nH]4)CN(C(=O)CC#N)C5)c2)CCC3)n1 [Compound 64, 3-(2-(4-(2-(6-Methylpyridin-2-yl)-6,7-dihydro-5H-pyrrolo[1,2-a]imidazol-3-yl)pyridin-2-yl)-4,6-dihydropyrrolo[3,4-d]imidazol-5(1H)-yl)-3-oxopropanenitrile]
3 | 5.6 nM | Cc1cccc(-c2nc3n(c2-c2ccnc(-c4nc5c([nH]4)CNCC5)c2)CCC3)n1 [Compound 75, 2-(4-(2-(6-Methylpyridin-2-yl)-6,7-dihydro-5H-pyrrolo[1,2-a]imidazol-3-yl)pyridin-2-yl)-4,5,6,7-tetrahydro-3H-imidazolo[4,5-c]pyridine]
4 | 2.8 nM | Cc1cccc(-c2nn3c(c2-c2ccnc(-c4nc5c([nH]4)CN(C(=O)C4CCN(C)CC4)C5)c2)CCC3)n1 [Compound 73, (1-Methylpiperidin-4-yl)(2-(4-(2-(6-methylpyridin-2-yl)-5,6-dihydro-4H-pyrrolo[1,2-b]pyrazol-3-yl)pyridin-2-yl)-4,6-dihydropyrrolo[3,4-d]imidazol-5(1H)-yl)ketone]
5 | 9.2 nM | Cc1cccc(-c2n[nH]cc2-c2ccnc(-c3nc4c([nH]3)CN(C(=O)N(C)C)C4)c2)n1 [Compound 59, N,N-Dimethyl-2-(4-(3-(6-methylpyridin-2-yl)-1H-pyrazol-4-yl)pyridin-2-yl)-4,6-dihydro pyrrolo[3,4-d]imidazol-5(1H)-carboxamide]
6 | 4.3 nM | Cc1cccc(-c2nc3n(c2-c2ccnc(-c4nc5c([nH]4)CN(CC(C)O)C5)c2)CCC3)n1 (stereo not drawn) [Compound 12, 1-(2-(4-(2-(6-Methylpyridin-2-yl)-6,7-dihydro-5H-pyrrolo[1,2-a]imidazol-3-yl)pyridin-2-yl)-4,6-dihydropyrrolo[3,4-d]imidazol-5(1H)-yl)propan-2-ol]
7 | 5.4 nM | Cc1cccc(-c2nc3n(c2-c2ccnc(-c4nc5c([nH]4)CN(S(C)(=O)=O)C5)c2)CCC3)n1 [Compound 9, 2-(4-(2-(6-Methylpyridin-2-yl)-6,7-dihydro-5H-pyrrolo[1,2-a]imidazol-3-yl)pyridin-2-yl)-5-(methylsulfonyl)-1,4,5,6-tetrahydropyrrolo[3,4-d]imidazole]
8 | 0.7 nM | Cc1cccc(-c2nn3c(c2-c2ccnc(-c4nc5c([nH]4)CN(C(=O)C4CC(O)C4)C5)c2)CCC3)n1 (stereo not drawn) [Compound 65, (3-Hydroxycyclobutyl)(2-(4-(2-(6-methylpyridin-2-yl)-5,6-dihydro-4H-pyrrolo[1,2-b]pyrazol-3-yl)pyridin-2-yl)-4,6-dihydropyrrolo[3,4-d]imidazol-5(1H)-yl)ketone]
9 | 4 nM | Cc1cccc(-c2nn3c(c2-c2ccnc(-c4nc5c([nH]4)CN(S(C)(=O)=O)C5)c2)CCC3)n1 [Compound 66, 2-(4-(2-(6-Methylpyridin-2-yl)-5,6-dihydro-4H-pyrrolo[1,2-b]pyrazol-3-yl)pyridin-2-yl)-5-(methylsulfonyl)-1,4,5,6-tetrahydropyrrolo[3,4-d]imidazole]
10 | 7.4 nM | Cc1cccc(-c2nc3n(c2-c2ccnc(-c4nc5c([nH]4)CN(C)C5)c2)CCC3)n1 [Compound 3, 5-methyl-2-(4-(2-(6-methylpyridin-2-yl)-6,7-dihydro-5H-pyrrolo[1,2-a]imidazol-3-yl)pyridin-2-yl)-1,4,5,6-tetrahydropyrrolo[3,4-d]imidazole]
11 | 23 nM | Cc1cccc(-c2nc3n(c2-c2ccnc(-c4nc5c([nH]4)CNC5)c2)CCC3)n1 [Compound 2, 2-(4-(2-(6-methylpyridin-2-yl)-6,7-dihydro-5H-pyrrolo[1,2-a]imidazol-3-yl)pyridin-2-yl)-1,4,5,6-tetrahydropyrrolo[3,4-d]imidazole]
12 | 11.6 nM | Cc1cccc(-c2nc3n(c2-c2ccnc(-c4nc5c([nH]4)CN(C(=O)c4cnn(C)c4)C5)c2)CCC3)n1 [Compound 11, (1-Methyl-1H-pyrazol-4-yl)(2-(4-(2-(6-methylpyridin-2-yl)-6,7-dihydro-5H-pyrrolo[1,2-a]imidazol-3-yl)pyridin-2-yl)-4,6-dihydropyrrolo[3,4-d]imidazol-5(1H)-yl)ketone]
13 | 5 nM | Cc1cccc(-c2nn(Cc3ccncc3)cc2-c2ccnc(-c3nc4c([nH]3)CN(S(C)(=O)=O)C4)c2)n1 [Compound 55, 2-[4-(3-(6-Methylpyridin-2-yl)-1-(pyridin-4-ylmethyl)-1H-pyrazol-4-yl)pyridin-2-yl]-5-(methylsulfonyl)-1,4,5,6-tetrahydropyrrolo[3,4-d]imidazole]
14 | 8.1 nM | CCS(=O)(=O)N1Cc2nc(-c3cc(-c4c(-c5cccc(C)n5)nn5c4CCC5)ccn3)[nH]c2C1 [Compound 68]
15 | 27 nM | Cc1cccc(-c2nn(C)cc2-c2ccnc(-c3nc4c([nH]3)CN(C(=O)C3CC(O)C3)C4)c2)n1 (stereo not drawn) [Compound 42, (3-Hydroxycyclobutyl)(2-(4-(1-methyl-3-(6-methylpyridin-2-yl)-1H-pyrazol-4-yl)pyridin-2-yl)-4,6-dihydropyrrolo[3,4-d]imidazol-5(1H)-yl)ketone]
16 | 11.9 nM | Cc1cccc(-c2nc3n(c2-c2ccnc(-c4nc5c([nH]4)CN(C4CCN(C)CC4)C5)c2)CCC3)n1 [Compound 13, 5-(1-Methylpiperidin-4-yl)-2-(4-(2-(6-methylpyridin-2-yl)-6,7-dihydro-5H-pyrrolo[1,2-a]imidazol-3-yl)pyridin-2-yl)-1,4,5,6-tetrahydropyrrolo[3,4-d]imidazole]
17 | 21 nM | CC(=O)N1Cc2nc(-c3cc(-c4c(-c5cccc(C)n5)nc5n4CCC5)ccn3)[nH]c2C1 [Compound 1, 1-(2-(4-(2-(6-methylpyridin-2-yl)-6,7-dihydro-5H-pyrrolo[1,2-a]imidazol-3-yl)pyridin-2-yl)-4,6-dihydropyrrolo[3,4-d]imidazol-5(1H)-yl)ethan-1-one]
18 | 25 nM | Cc1cccc(-c2nc3n(c2-c2ccnc(-c4nc5c([nH]4)CN(C4CCC(O)CC4)C5)c2)CCC3)n1 (stereo not drawn) [Compound 25, 4-(2-(4-(2-(6-Methylpyridin-2-yl)-6,7-dihydro-5H-pyrrolo[1,2-a]imidazol-3-yl)pyridin-2-yl)-4,6-dihydropyrrolo[3,4-d]imidazol-5(1H)-yl)cyclohexan-1-ol]
19 | 6.2 nM | Cc1cccc(-c2nn(CC(C)O)cc2-c2ccnc(-c3nc4c([nH]3)CNC4)c2)n1 (stereo not drawn) [Compound 44, 3-(3-(6-Methylpyridin-2-yl)-4-(2-(1,4,5,6-tetrahydropyrrolo[3,4-d]imidazol-2-yl)pyridin-4-yl)-1H-pyrazol-1-yl)propan-2-ol]
20 | 2.2 nM | Cc1cccc(-c2nn(Cc3ccc(F)cc3)cc2-c2ccnc(-c3nc4c([nH]3)CN(S(C)(=O)=O)C4)c2)n1 [Compound 50, 2-[4-(1-(4-Fluorobenzyl)-3-(6-methylpyridin-2-yl)-1H-pyrazol-4-yl)pyridin-2-yl]-5-(methylsulfonyl)-1,4,5,6-tetrahydropyrrolo[3,4-d]imidazole]
21 | 1.7 nM | CCN(C)C(=O)N1Cc2nc(-c3cc(-c4c(-c5cccc(C)n5)nn5c4CCC5)ccn3)[nH]c2C1 [Compound 74, N-Ethyl-N-methyl-2-(4-(2-(6-methylpyridin-2-yl)-5,6-dihydro-4H-pyrrolo[1,2-b]pyrazol-3-yl)pyridin-2-yl)-4,6-dihydropyrrolo[3,4-d]imidazole-5(1H)-carboxamide]
